Measurements taken from patent US20120136033A1, “Small Molecule Antagonists of Phosphatidylinositol-3,4,5-Triphosphate (PIP3) and Uses Thereof” (President and Fellows of Harvard College, priority 2009, published 2012).

Legend:
cells = test: cell death under glucose/glutamine deprivation; assay type: cell-based
Description: Elstrom R L et al. (2004) Cancer Res 64:3892-9.

PDK1 PH domain = target: T1, PDK1 PH domain (Homo sapiens, UniProt O15530); test: FP assay, PIP3 binding to PDK1 PH domain; conditions: 15 nM TMR-PIP3, 100 nM PDK1 PH domain, 0-200 μM
T1 construct: 100 nM 441-551 a.a. region of human PDK1; made in house; host or cells: E. coli BL21(DE3)
T1 sequence (O15530 441-551): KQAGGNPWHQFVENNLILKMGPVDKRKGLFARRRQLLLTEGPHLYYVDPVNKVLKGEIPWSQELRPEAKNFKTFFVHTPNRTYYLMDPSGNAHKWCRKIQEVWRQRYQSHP
Experimental: FIG. 4 is a graph depicting concentration-dependent competitive inhibition of PIP3-PH domain interaction by PIT-1 and PIT-2. 15 nM TMR-conjugated PIP3 were incubated with 100 nM PDK1 PH domain in the presence or absence of the indicated concentrations of PITs (0-200 μM) for 30 min, followed by FP measurement.
In order to identify compounds that disrupt the interaction between PIP3 and PH domains, a high-throughput fluorescence polarization (FP)-binding assay was developed using recombinant 1-123 amino acid N-terminal fragment of human Akt1 (also referred to herein simply as Akt), encompassing the PH domain (PH123 protein), and fluorescent NBD-labeled PIP3 molecule. The amino acid sequence of human Akt1 is publicly available as, for example, GenBank Accession No. NP_001014432.1 (SEQ ID NO:1), and the corresponding DNA sequence is publicly available as, for example, GenBank Accession No. NM_001014432. Briefly, 5 μM recombinant GST fusion proteins containing 1-123 a.a. N-terminal fragment of human Akt1 (PH 123) or 100 nM 441-551 a.a. region of human PDK1 were incubated with 15 nM TMR-labeled PIP3, PIP2, or PIP5 in buffer containing 50 mM Tris-HCl (pH 7.5), 150 mM NaCl, and 5 mM b-ME for 15 min at room temperature in the dark. FP values were determined using Wallac Victor 3 plate reader. […]

SUM159 cells = test: cell polarization in wounded SUM159 monolayers; assay type: cell-based, human; conditions: 100 μM, 2 hr
Experimental: In order to measure cell polarization, wounds were generated in SUM159 cell monolayers, followed by serum starvation and treatment with 100 μM PIT-1, PIT-2, PIT-1i-1, or PIT-1i-2 for 2 hr. Cells were stimulated for 15 min with 100 ng/ml PDGF, fixed and stained with TRITC-phalloidin for F-actin (red), acetylated tubulin antibody (green) for microtubule organization center (MTOC), and Hoechst for nuclei (blue). Cell polarization was evaluated by analysis of the relative location of the MTOC and nucleus. […] The number of polarized cells was counted in five random fields under fluorescent microscope.

Rac1 = Rac1 activation pull-down (GST-Pak1-PBD) in SUM159 cells; assay type: cell-based, human; conditions: 2 hr, PDGF 100 ng/ml
Experimental: Rho/Rac family, especially Rac1, plays a critical role in actin polymerization, membrane ruffling/lamellipodia formation, and cell motility (Ridley A J et al. (1992) Cell 70:401-410) downstream of the GEFs, e.g., VAV family, and upstream of the WAVE family. The effect of PITs on Rac1 activation was therefore analyzed. SUM159 cells were seeded on 10 cm^2 plates and serum starved overnight, treated with different PIT compounds at a variety of concentrations for 2 hr, and then stimulated with 100 ng/ml PDGF for […]. Next, cells were rinsed once with PBS, and 1 ml lysis buffer (25 mM Tris-HCl, pH 7.5, 150 mM NaCl, 5 mM MgCl2, 1% NP-40, 1 mM DTT, 5% glycerol, 1 μg/ml aprotinin, 1 μg/ml leupeptin and 1 mM PMSF) was added per plate. The cells were scraped and transferred to a microcentrifuge tube, vortexed briefly, and incubated on ice for 5 min, followed by a centrifugation at 16,000×g at 4° C. for 15 min. The supernatant was collected. A sample of the lysate was used to ensure equal protein concentration in the samples. Next, 700 μl lysate, 20 μl glutathione-sepharose beads, and 20 μg GST-human Pak1-PBD were mixed together, and the reaction mixture was incubated at 4° C. for 1 hr with gentle rocking. The beads were then washed three times with lysis buffer, and proteins were eluted by boiling beads in 50 μl of the 2×SDS sample buffer at 95-100° C. for 5 min. […]

cancer cells = assay type: cell-based
U87MG cells = test: U87MG cell viability, ATP assay; assay type: cell-based, human; conditions: for viability of U87MG cells: 12.5-100 μM, 48 hr, ATP assay
Experimental: U87MG cells were incubated with PITs (12.5-100 μM) for 48 hr. Cell viability was determined using ATP assay.
Based on the critical role of PIP3-dependent Akt signaling in the regulation of cell survival, the effect of PIT-1 on the cancer cell viability was tested. Cancer cells were seeded into 96-well plates (white plates for ATP assay; black plates for fluorescent assay; clear plates for MTS assay) at the density of 5-10×10^3 cells per well in 100 μl of the appropriate media. Compounds were added at a series of concentrations and incubated for different times. For the ATP assay, a luminescence-based commercial kit (CellTiter-Glo, Promega, Madison, Wis.) was used. Thirty microliters of cell lysis/ATP detection reagent was added to each well, mixed for 10 min at room temperature, and the luminescence was measured using a Wallac Victor 3 plate reader (Perkin-Elmer, Wellesley, Mass.). For the MTS assay, a CellTiter 96 AQueous Non-Radioactive Cell Proliferation Assay Kit (Promega, Madison, Wis., USA) was used. Twenty microliters of the combined MTS/PMS solution was added into each well, incubated for 4 hr at 37° C., and the absorbance at 490 nm was measured using a Wallac Victor 3 plate reader. For the Sytox cell death assay, measuring loss of plasma membrane integrity, cells were incubated with 1 μM Sytox Green reagent (Molecular Probes, Eugene, Oreg.) for 30 min at 37° C. and the fluorescence intensity was measured using Wallac Victor 3 plate reader with excitation at 485 nm and emission at 545 nm. Next, 5 μl of 20% (v/v) Triton X-100 solution was added to each well and incubated for 1 hr at 37° C., and the signal was measured again. The ratio of values (percentage of dead cells in each well) before and after Triton X-100 treatment was calculated and normalized to the relevant controls not subjected to the cytotoxic stimuli. IC50 values were determined using Origin6 software (MicroCal, LLC, Northampton, Mass.).

Row | SMILES | cell death in combination with glucose/glutamine deprivation (cells) | inhibition of binding of PIP3 to the PH domain of PDK1 (PDK1 PH domain) | cell polarization and lamellipodia formation induced by PDGF, wound healing model (SUM159 cells) | activation of Rac1 caused by growth factor stimulation (Rac1) | cancer cell invasion through matrigel (cancer cells) | cytotoxic effects at the low concentrations used in migration and invasion experiments (cancer cells; P>0.05) | killing of U87MG cells compared with LY294002 (U87MG cells) | viability of U87MG cells (U87MG cells)
1 | O=C(NC(=S)Nc1cc([N+](=O)[O-])cc(Cl)c1O)c1ccccc1 [PIT-1] | dramatic induction of cell death | inhibited binding | effective at preventing cell polarization | efficiently suppressed | efficiently suppressed | no significant cytotoxic effects | more pronounced than that by the PI3K inhibitor LY294002 | reduce viability
2 | O=C1NC(=S)S/C1=C\c1cc(O)c([N+](=O)[O-])cc1Cc1ccccc1 [PIT-2] | dramatic induction of cell death | inhibited binding | effective at preventing cell polarization | efficiently suppressed | efficiently suppressed |  |  | reduce viability
